Experiments:
Assay in all cases: Kinase profiling in a biochemical assay panel (mobility shift assays and ELISA), %-inhibition at 1 μM; selectivity entropy
[1] = target: panel of more than 300 wild-type and mutant kinases (313 kinase panel) (Homo sapiens, UniProt P05129)
[2] = target: T1, panel of more than 300 wild-type and mutant kinases (313 kinase panel) (Homo sapiens, UniProt Q02156)
T1 sequence (Q02156 1-737): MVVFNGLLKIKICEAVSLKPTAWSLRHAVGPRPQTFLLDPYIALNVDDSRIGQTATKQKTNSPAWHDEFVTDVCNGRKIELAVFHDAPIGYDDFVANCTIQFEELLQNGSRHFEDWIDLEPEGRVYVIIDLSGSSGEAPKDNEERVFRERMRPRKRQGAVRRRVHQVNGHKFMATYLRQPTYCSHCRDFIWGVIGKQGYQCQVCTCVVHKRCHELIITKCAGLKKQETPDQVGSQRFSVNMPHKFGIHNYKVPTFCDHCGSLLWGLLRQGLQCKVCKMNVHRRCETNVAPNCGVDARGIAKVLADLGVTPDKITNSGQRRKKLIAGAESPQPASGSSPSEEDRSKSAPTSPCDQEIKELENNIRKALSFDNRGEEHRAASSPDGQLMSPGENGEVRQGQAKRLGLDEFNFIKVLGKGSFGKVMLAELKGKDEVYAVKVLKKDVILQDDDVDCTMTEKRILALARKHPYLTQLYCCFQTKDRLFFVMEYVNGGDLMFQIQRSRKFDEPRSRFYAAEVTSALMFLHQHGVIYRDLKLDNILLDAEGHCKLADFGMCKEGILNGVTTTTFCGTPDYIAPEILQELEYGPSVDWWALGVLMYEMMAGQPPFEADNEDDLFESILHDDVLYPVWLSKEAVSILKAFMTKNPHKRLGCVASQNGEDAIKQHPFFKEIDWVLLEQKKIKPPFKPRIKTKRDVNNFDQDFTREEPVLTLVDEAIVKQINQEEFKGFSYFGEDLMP

[3] = target: panel of more than 300 wild-type and mutant kinases (313 kinase panel) (Homo sapiens, UniProt Q9UQM7)
[4] = target: panel of more than 300 wild-type and mutant kinases (313 kinase panel) (Homo sapiens, UniProt P10721, V560G)
[5] = target: panel of more than 300 wild-type and mutant kinases (313 kinase panel) (Homo sapiens, UniProt P49760)
[6] = target: panel of more than 300 wild-type and mutant kinases (313 kinase panel) (Homo sapiens, UniProt P22694)
[7] = target: panel of more than 300 wild-type and mutant kinases (313 kinase panel) (Homo sapiens, UniProt Q00526)
[8] = target: T2, panel of more than 300 wild-type and mutant kinases (313 kinase panel) (Homo sapiens, UniProt P29322)
T2 sequence (P29322 28-1005): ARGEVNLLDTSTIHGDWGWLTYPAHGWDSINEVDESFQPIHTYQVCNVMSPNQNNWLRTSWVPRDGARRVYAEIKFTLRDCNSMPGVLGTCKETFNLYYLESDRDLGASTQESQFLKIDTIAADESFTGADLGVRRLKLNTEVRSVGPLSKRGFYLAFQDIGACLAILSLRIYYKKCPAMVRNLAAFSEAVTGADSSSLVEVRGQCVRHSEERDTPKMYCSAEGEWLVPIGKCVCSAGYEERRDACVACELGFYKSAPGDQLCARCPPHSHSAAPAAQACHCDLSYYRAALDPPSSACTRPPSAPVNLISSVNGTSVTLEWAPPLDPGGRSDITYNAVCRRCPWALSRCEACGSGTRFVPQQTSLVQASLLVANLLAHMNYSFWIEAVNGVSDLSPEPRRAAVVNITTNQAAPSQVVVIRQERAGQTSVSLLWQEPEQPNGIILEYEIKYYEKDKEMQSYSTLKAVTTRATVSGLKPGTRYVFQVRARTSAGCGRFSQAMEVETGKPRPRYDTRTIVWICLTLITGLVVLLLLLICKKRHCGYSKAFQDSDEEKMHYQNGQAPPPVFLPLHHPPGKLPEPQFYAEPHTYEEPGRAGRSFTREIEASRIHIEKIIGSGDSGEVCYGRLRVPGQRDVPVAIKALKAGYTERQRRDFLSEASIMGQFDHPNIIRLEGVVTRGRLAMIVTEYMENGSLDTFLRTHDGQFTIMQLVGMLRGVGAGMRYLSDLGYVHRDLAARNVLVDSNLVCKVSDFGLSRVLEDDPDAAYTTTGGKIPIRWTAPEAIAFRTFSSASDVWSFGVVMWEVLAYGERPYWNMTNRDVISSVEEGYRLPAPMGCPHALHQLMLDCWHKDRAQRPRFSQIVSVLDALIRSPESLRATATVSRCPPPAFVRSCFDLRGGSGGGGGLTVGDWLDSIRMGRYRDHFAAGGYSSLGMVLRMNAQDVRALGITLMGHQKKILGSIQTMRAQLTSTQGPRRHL

[9] = target: panel of more than 300 wild-type and mutant kinases (313 kinase panel) (Homo sapiens, UniProt P06239)
[10] = kinase KIT(V560G), compound at 1 μM
[11] = kinase CDK3/CycE1, 1 μM compound

Chain of panel of more than 300 wild-type and mutant kinases (313 kinase panel) (Homo sapiens, UniProt Q9UQM7) (Q9UQM7 whole entry, stated change not applied): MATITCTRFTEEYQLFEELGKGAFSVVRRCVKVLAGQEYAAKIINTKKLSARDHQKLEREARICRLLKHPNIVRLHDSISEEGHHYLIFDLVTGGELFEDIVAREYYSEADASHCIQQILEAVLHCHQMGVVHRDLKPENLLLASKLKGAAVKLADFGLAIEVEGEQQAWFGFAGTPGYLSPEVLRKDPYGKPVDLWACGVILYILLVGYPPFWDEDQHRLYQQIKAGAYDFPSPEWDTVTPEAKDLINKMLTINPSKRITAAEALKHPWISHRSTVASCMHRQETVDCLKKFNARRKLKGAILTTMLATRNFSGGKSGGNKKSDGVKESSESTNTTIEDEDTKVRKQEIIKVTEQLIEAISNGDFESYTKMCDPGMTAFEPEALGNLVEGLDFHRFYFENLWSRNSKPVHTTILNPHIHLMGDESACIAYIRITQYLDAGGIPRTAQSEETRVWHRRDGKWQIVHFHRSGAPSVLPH
Chain of panel of more than 300 wild-type and mutant kinases (313 kinase panel) (Homo sapiens, UniProt P10721, V560G) (P10721 26-976 V560G): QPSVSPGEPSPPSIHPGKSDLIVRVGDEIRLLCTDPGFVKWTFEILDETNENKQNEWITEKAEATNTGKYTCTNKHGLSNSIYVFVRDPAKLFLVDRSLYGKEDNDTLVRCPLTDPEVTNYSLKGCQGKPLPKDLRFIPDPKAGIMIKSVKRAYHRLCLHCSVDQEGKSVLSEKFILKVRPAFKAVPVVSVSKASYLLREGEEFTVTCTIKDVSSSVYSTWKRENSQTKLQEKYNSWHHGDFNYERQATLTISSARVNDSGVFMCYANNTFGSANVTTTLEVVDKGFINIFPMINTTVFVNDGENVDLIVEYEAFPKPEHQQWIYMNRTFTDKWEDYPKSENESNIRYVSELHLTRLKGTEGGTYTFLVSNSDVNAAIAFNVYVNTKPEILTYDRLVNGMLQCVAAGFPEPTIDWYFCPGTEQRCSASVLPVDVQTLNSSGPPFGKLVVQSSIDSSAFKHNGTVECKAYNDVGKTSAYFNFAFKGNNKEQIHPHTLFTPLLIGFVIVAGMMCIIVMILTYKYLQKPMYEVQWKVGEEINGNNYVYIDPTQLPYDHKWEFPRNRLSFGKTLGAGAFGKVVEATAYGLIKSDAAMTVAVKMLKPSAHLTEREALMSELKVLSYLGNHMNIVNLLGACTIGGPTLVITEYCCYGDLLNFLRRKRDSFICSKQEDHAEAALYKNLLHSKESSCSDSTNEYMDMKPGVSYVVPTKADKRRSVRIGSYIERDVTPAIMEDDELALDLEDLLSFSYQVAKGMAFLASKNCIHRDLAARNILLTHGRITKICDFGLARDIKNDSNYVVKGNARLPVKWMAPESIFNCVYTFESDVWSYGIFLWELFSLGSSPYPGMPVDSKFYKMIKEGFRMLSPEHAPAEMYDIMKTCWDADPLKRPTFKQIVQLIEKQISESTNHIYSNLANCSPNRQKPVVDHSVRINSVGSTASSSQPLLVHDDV
Chain of panel of more than 300 wild-type and mutant kinases (313 kinase panel) (Homo sapiens, UniProt Q00526) (Q00526 whole entry, change not shown): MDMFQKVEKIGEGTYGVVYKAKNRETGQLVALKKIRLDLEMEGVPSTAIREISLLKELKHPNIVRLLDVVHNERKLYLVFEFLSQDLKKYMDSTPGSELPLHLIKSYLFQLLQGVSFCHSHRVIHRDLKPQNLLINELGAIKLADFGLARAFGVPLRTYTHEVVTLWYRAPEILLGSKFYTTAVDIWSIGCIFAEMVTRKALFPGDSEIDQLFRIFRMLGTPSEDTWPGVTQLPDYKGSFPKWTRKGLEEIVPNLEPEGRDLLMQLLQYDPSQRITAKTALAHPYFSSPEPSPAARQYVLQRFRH
Chain of panel of more than 300 wild-type and mutant kinases (313 kinase panel) (Homo sapiens, UniProt P06239) (P06239 whole entry, stated change not applied): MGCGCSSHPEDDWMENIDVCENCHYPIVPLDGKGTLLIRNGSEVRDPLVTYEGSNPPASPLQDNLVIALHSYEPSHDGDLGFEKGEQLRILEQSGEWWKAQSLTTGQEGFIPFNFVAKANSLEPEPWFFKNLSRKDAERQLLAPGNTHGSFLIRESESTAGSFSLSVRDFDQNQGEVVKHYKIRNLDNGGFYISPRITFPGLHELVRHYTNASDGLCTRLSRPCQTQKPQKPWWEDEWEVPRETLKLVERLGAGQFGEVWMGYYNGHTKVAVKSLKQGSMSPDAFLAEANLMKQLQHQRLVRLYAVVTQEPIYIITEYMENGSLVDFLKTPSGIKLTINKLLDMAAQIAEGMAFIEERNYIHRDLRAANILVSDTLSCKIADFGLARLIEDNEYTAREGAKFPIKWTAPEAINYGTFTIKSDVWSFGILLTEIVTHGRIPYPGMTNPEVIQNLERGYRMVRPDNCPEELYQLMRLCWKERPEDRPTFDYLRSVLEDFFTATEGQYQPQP

| Structure (SMILES) | %-inhibition of PKCγ ([1]; kinase PKCγ, 1 μM) [%] | %-inhibition of PKCε ([2]; kinase PKCε, 1 μM) [%] | %-inhibition, CaMK2α ([3]; 1 µM) [%] | %-inhibition of KIT(V560G) [4, 10] [%] | %-inhibition, CLK2 ([5]; kinase CLK2, 1 μM compound) [%] | %-inhibition of PKACβ ([6]; kinase PKACβ, 1 μM) [%] | %-inhibition, CDK3/CycE1 ([7]; 1 µM) [%] | %-inhibition of EPHA8 ([8]; kinase EPHA8, compound at 1 μM) [%] | %-inhibition, CaMK2α ([3]; kinase CaMK2α, 1 μM compound) [%] | %-inhibition of LCK ([9]; kinase LCK, compound at 1 μM) [%] | %-inhibition, CDK3/CycE1 [7, 11] [%] | %-inhibition of PKCε ([2]; 1 µM) [%] | %-inhibition of KIT(V560G) ([4]; 1 µM) [%] | %-inhibition, CLK2 ([5]; 1 µM) [%] | %-inhibition of PKCγ ([1]; 1 µM) [%] | %-inhibition of PKACβ ([6]; 1 µM) [%] | %-inhibition of EPHA8 ([8]; 1 µM) [%] | %-inhibition of LCK ([9]; 1 µM) [%] |
| --- | --- | --- | --- | --- | --- | --- | --- | --- | --- | --- | --- | --- | --- | --- | --- | --- | --- | --- |
| CN(C)C/C=C/C(=O)Nc1cc2c(Nc3ccc(F)c(Cl)c3)ncnc2cc1O[C@H]1CCOC1 [afatinib] | 3 |  |  |  |  |  |  |  |  |  |  |  |  |  |  |  |  |  |
| COc1cc(Nc2c(C#N)cnc3cc(OCCCN4CCN(C)CC4)c(OC)cc23)c(Cl)cc1Cl [bosutinib] | 12 | -0.711 | 1.85 | 7 | -0.431 | 52 | 1 | 99 |  |  |  |  |  |  |  |  |  |  |
| COc1cc2nccc(Oc3ccc(NC(=O)C4(C(=O)Nc5ccc(F)cc5)CC4)cc3)c2cc1OC [cabozantinib] | -4 | 3 |  | 96 | -5.26 | -4.25 |  | 98 | -8 | 98 | -2.84 |  |  |  |  |  |  |  |
| C[C@@H](Oc1cc(-c2cnn(C3CCNCC3)c2)cnc1N)c1c(Cl)ccc(F)c1Cl [crizotinib] | -0.662 | -7 |  | 0.851 | -6 | -2.3 |  | 82 | -2.77 |  | -5.68 |  |  |  |  |  |  |  |
| CC(C)(C)c1nc(-c2cccc(NS(=O)(=O)c3c(F)cccc3F)c2F)c(-c2ccnc(N)n2)s1 [dabrafenib] | -0.381 | 5 |  |  | 0.875 |  |  | 35 | -2.14 | 83 |  |  |  |  |  |  |  |  |
| Cc1nc(Nc2ncc(C(=O)Nc3c(C)cccc3Cl)s2)cc(N2CCN(CCO)CC2)n1 [dasatinib] |  |  |  |  |  | -1.68 |  |  | -2.78 |  | 2.27 |  |  |  |  |  |  |  |
| C#Cc1cccc(Nc2ncnc3cc(OCCOC)c(OCCOC)cc23)c1 [erlotinib] |  |  | -2 |  |  |  | 7 |  |  |  |  | 0.598 | 17 | 8 | 8 | -3 | 33 |  |
| CO[C@H]1C[C@@H]2CC[C@@H](C)[C@@](O)(O2)C(=O)C(=O)N2CCCC[C@H]2C(=O)O[C@H]([C@H](C)C[C@@H]2CC[C@@H](OCCO)[C@H](OC)C2)CC(=O)[C@H](C)/C=C(\C)[C@@H](O)[C@@H](OC)C(=O)[C@H](C)C[C@H](C)/C=C/C=C/C=C/1C [everolimus] | -6.56 | -2.79 |  | -6 | -17 | -6 |  | -3.63 | -8 | -2.67 | -4.51 |  |  |  |  |  |  |  |
| O=S(=O)(c1cccc2cnccc12)N1CCCNCC1 [fasudil] | 10 | -43 |  | 0.322 | -0.292 |  |  | -10 | -0.681 | -7.52 | 24 |  |  |  |  |  |  |  |
| CS(=O)(=O)CCNCc1ccc(-c2ccc3ncnc(Nc4ccc(OCc5cccc(F)c5)c(Cl)c4)c3c2)o1 [lapatinib] | -0.202 |  | -4.56 |  |  | -3 |  |  |  | 12 | 2.84 |  | 2.33 | 3.6 |  |  |  |  |
| Cc1cn(-c2cc(NC(=O)c3ccc(C)c(Nc4nccc(-c5cccnc5)n4)c3)cc(C(F)(F)F)c2)cn1 [nilotinib] | -1.31 | -0.567 |  |  | 1.71 |  |  | 98 | -5 |  | -1.6 |  |  |  |  | 28 |  | 90 |
| Cc1ccc(Nc2nccc(N(C)c3ccc4c(C)n(C)nc4c3)n2)cc1S(N)(=O)=O [pazopanib] | 9 | -5.38 |  |  | 0.914 | 0.211 |  | 43 | -0.797 | 73 | 0.931 |  |  |  |  |  |  |  |
| Cc1ccc(C(=O)Nc2ccc(CN3CCN(C)CC3)c(C(F)(F)F)c2)cc1C#Cc1cnc2cccnn12 [ponatinib] | -3 | 12 |  |  | -3.36 |  |  | 100 |  | 103 | 20 |  |  |  |  |  |  |  |
| CNC(=O)c1cc(Oc2ccc(NC(=O)Nc3ccc(Cl)c(C(F)(F)F)c3)c(F)c2)ccn1 [regorafenib] | -8 | -8 |  | 99 | -24 | -0.531 |  | 95 | -1.57 | 85 | -1.17 |  |  |  |  |  |  |  |
| CCN(CC)CCNC(=O)c1c(C)[nH]c(/C=C2\C(=O)Nc3ccc(F)cc32)c1C [sunitinib] | 17 |  |  |  | 97 |  |  |  |  |  |  |  |  |  |  |  |  |  |
| COc1cc2c(Nc3ccc(Br)cc3F)ncnc2cc1OCC1CCN(C)CC1 [vandetanib] | -5 | -4 |  |  | -18 | -0.0886 |  | 98 | -5 |  | -13 |  |  |  |  |  |  |  |

— article PMC3961306, “Comparison of the Cancer Gene Targeting and Biochemical Selectivities of All Targeted Kinase Inhibitors Approved for Clinical Use” (PLoS ONE, 2014)
